The text below walks through data of ChEMBL document CHEMBL3864189, “Carboxamide Spleen Tyrosine Kinase (Syk) Inhibitors: Leveraging Ground State Interactions To Accelerate Optimization” (ACS Med Chem Lett, 2016).

In series [1] the test system is Salmonella typhimurium. Description: Genotoxicity in Salmonella typhimurium TA97a in presence of rat s9 fraction by Ames test. It is filed as toxicity, organism-based. Particulars: salmonella enterica subsp. enterica serovar typhimurium.
Series [2] addresses T1, Tyrosine-protein kinase SYK (Homo sapiens, UniProt P43405). Description: Inhibition of GST-tagged full length human SYK (1 to 635 end residues) expressed in baculovirus expression system preincubated for 10 mins followed by Blk/Lyntide substrate and ATP addition measured after 45 mins TR-FRET assay.
For series [3], the target named is T1, Tyrosine-protein kinase SYK. Description: Inhibition of GST-tagged full length human SYK (1 to 635 end residues) expressed in baculovirus expression system at 10 uM preincubated for 10 mins followed by Blk/Lyntide substrate and ATP addition measured after 45 mins TR-FRET assay relative to control.
The nature of series [4]: Unbound plasma clearance in po dosed rat. It is filed as ADME, organism-based. Particulars: in vivo.
A further series relates to Rattus norvegicus. Description: Antiarthritic activity in collagen-induced arthritis rat model at 3 mg/kg, po administered qd. Type of series: functional, organism-based.
In series [5] the test system is Salmonella typhimurium. Briefly: Genotoxicity in Salmonella typhimurium TA97a by Ames test. It is filed as toxicity, organism-based. As to conditions: salmonella enterica subsp. enterica serovar typhimurium.
Series [6] is described as follows: Oral bioavailability in rat. It is filed as ADME, organism-based. Particulars: in vivo.

The structures appear in SMILES notation. Calls of active or inactive are those of the source. The rule behind the calls is not given here.

Regarding `NC(=O)c1ncc(N[C@@H]2CCCC[C@@H]2N)cc1COc1ccccc1`, in the series with Salmonella typhimurium [1], the Activity result is recorded as “Non-Toxic”.

As for `NC(=O)c1ncc(N[C@@H]2CCCC[C@@H]2N)cc1C#Cc1ccccc1`, the Activity result with Salmonella typhimurium [1] is “Non-Toxic”.

For `NC(=O)c1ncc(N[C@@H]2CCCC[C@@H]2N)cc1/C=C/c1ccccc1`, the Activity entry in the series on Salmonella typhimurium [1] is listed as “Non-Toxic”.

`Cn1cc(-c2cc(N[C@@H]3CCCC[C@@H]3N)cnc2C(N)=O)cn1` came in with an IC50 in series [2] of more than 10 µM. In addition, the inhibition in series [3] came out at 9%. Further, in the series on Salmonella typhimurium [1], the Activity entry is “Non-Toxic”.

On to `COc1cccc2[nH]c(-c3nc(N[C@@H]4CCOC[C@@H]4N)cnc3C(N)=O)cc12`, for which, in series [4], the CL free stood at 100 mL/min/kg. Besides, the Activity result in the series on Salmonella typhimurium [1] is listed as “Non-Toxic”.

Regarding `C[C@H](N)CNc1cnc(C(N)=O)c(-c2cc3ccccc3o2)n1`, the Activity result with Salmonella typhimurium [1] is recorded as “Non-Toxic”.

With `Cc1cc(C)nc(Nc2cc(N[C@@H]3CCCC[C@@H]3N)cnc2C(N)=O)c1`, the CL free in series [4] is 710 mL/min/kg. The outcome in the series with Rattus norvegicus was Active. Also, in the series on Salmonella typhimurium [5], the Activity entry is reported as “Toxic”.

In series [6], `NC(=O)c1ncc(N[C@@H]2CCCC[C@@H]2N)nc1-c1cc2ccccc2[nH]1` yielded a bioavailability of 19%. The same molecule came in with a CL free in series [4] of 255 mL/min/kg. The Activity entry with Salmonella typhimurium [1] is “Non-Toxic”.

For the molecule `C[C@H](N)CNc1cnc(C(N)=O)c(-c2cnn(C)c2)n1`, in the series with Salmonella typhimurium [1], the Activity result is given as “Non-Toxic”.

In the case of `C[C@H](N)CNc1cnc(C(N)=O)c(-c2cc3ccccc3[nH]2)n1`, the Activity entry in the series with Salmonella typhimurium [1] is reported as “Non-Toxic”.
